Legend:
[1] = tested on: S. aureus (NCTC-8325-4) biofilm; assay: S. aureus biofilm assay (microtiter wells, crystal violet stain, OD590); format: cell-based, Staphylococcus aureus
Protocol: In the S. aureus biofilm assay, polystyrene microtiter wells and glass tubes well known in the art were used to develop biofilm in vitro. Fractions dissolved in water were added to a sterile tryptic soy broth (TSB, Difco, Detroit) medium at a final concentration between 0.001-0.01% (w/v). Biofilm was developed and measured according to methods well known in the art. Briefly, a single colony of S. aureus (NCTC-8325-4) (or a clinical isolate) grown on blood agar plate was inoculated into the TSB liquid medium and grown in a shaking water bath at 37° C. until it reached an optical density (OD600) of 0.6-0.8. An aliquot was further diluted in TSB to an OD of 0.05 and 0.1 ml was dispensed into sterile microtiter wells. Solubilized SSF were added to the wells (1 μl/ml from 0.1% of filter sterile stock in water). Cells without SSF served as a control. The microtiter plate was incubated at 37° C. with gentle shaking for up to 16 hours.
(§1) At different time points, cells were collected and assayed for biofilm growth. Unbound cells were aspirated and saved for measuring the growth at OD600 and cell viability on agar plates. Loosely bound cells were removed by washing with phosphate buffer saline (PBS) twice and adherent biofilm cells were stained with 1% crystal violet (CV) stain. After extensive washing, stained cells were air dried, solubilized in dimethylsulfoxide (DMSO) and lysates (100 μl) were measured by a plate reader at OD590.

S. aureus = S. aureus growth (OD600) and cell viability on agar plates; format: cell-based, Staphylococcus aureus; conditions: growth in TSB with or without substance
Protocol: as §1

[2] = tested on: poly N-acetylglucosamine (PNAG); assay: PNAG western blot of S. aureus biofilm cells (anti-PNAG rabbit polyclonal antibody); format: cell-based, Staphylococcus aureus; conditions: for PNAG synthesis in the presence of activator: LBBI-1 and LBBA-1 incubated together during biofilm growth
[3] = tested on: several cell lines (human)
rat chorda tympani nerve = conditions: glucose, sucrose, glycine and saccharine; known in the art; cited from earlier work
sweet taste = conditions: cited from earlier work

Substance: gurmarin [LBBI-1]
- biofilm inhibitory property ([1]; 2 μg/ml concentration, microtiter biofilm assay): confirmed
- S. aureus biofilm growth ([1]; FIG. 3B): prevents S. aureus biofilm growth
- biofilm production in the presence of LBBA-1 ([1]; in the presence of LBBA-1): can inhibit biofilm production
- S. aureus cell growth and viability (S. aureus): did not affect the growth of S. aureus
- PNAG synthesis in the presence of activator [2]: almost abolished
- PNAG synthesis in the presence of activator ([2]; listed as biofilm inhibitor): suppresses the production of PNAG
- PNAG production ([2]; western blot, S. aureus biofilm): significantly less PNAG production
- toxicity to cell lines [3]: non-toxic
- response of the rat chorda tympani nerve to sweet-taste stimuli (rat chorda tympani nerve): suppress the response
- sweet taste suppression in humans (sweet taste): no apparent effect

Source: US20080241281A1, “Compositions & methods for activation and inhibition of Staphylococcus aureus biofilm development” (priority 2007, published 2008)
